In patent US20110118238A1, “2-ANILINOPURIN-8-ONES AS INHIBITORS OF TTK/MPS1 FOR THE TREATMENT OF PROLIFERATIVE DISORDERS” (ASTRAZENECA AB, priority 2007, published 2011) one finds IC50 data, which are given here for 20 compounds.

In experiment [1] the target is T1, N-terminal GST tagged full length human TTK kinase (Homo sapiens, UniProt P33981).
T1 construct: N-terminal GST tagged full length human TTK kinase; GST (N); made in house; host or cells: insect cells
T1 sequence (P33981 1-857): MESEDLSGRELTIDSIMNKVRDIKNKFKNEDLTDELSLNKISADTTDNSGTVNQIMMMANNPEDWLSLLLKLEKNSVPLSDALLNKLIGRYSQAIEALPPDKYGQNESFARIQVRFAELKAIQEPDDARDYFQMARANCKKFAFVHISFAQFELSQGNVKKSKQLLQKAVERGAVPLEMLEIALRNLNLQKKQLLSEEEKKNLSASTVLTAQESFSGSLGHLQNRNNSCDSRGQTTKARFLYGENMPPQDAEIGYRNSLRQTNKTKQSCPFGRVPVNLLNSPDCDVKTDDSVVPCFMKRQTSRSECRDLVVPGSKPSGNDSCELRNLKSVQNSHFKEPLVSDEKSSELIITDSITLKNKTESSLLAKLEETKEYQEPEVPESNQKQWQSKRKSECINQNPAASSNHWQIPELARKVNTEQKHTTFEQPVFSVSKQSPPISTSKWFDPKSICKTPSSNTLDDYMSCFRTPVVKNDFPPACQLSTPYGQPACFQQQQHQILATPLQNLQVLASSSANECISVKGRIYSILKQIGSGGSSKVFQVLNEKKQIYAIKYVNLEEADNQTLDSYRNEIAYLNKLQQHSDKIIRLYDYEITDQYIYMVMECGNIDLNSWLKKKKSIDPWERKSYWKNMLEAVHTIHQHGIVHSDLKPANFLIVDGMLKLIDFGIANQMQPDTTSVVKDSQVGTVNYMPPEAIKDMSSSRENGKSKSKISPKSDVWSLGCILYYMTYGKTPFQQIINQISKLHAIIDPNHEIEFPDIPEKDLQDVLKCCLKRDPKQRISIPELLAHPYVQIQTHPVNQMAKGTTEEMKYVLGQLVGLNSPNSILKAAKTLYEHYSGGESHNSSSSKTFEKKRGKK
Description: In Vitro TTK Kinase Assay 1 (AlphaScreen). The format is biochemical. Conditions: recombinant TTK, 10 μM ATP, read-out: EAA: Enzyme Assay Activity (In Vitro TTK kinase assay 1). The protocol: Aliquots (2 μL) of each compound dilution were placed into wells of a Greiner 384-well low volume white polystyrene plate (Greiner Bio-one).
The resultant signals arising from laser light excitation at 680 nm were read using a Packard Envision instrument.

The target of experiment [2] is T1, N-terminal GST tagged full length human TTK kinase. In words: In Vitro TTK Kinase Assay 2 (Caliper LabChip LC3000). The conditions noted are these: recombinant TTK, 12 μM ATP, read-out: EAA2: Enzyme Assay Activity (In Vitro TTK kinase assay 2). The format is biochemical. The protocol:
Each reaction was stopped by the addition of EDTA to a concentration of 40 mM in a solution which also comprised 0.1% coating reagent (Caliper LS), 100 mM HEPES pH 7.5, 0.015% v/v Brij™-35 and 5% DMSO. The stopped enzyme reactions were sipped through capillaries onto a Caliper chip where the peptide substrate and phosphorylated product were separated and detected via laser-induced fluorescence.

For the compound `CCOc1cc(N2CCC(N(C)C)CC2)ccc1Nc1ncc2c(n1)n(C1CCCC1)c(=O)n2C` [Example 23, 9-Cyclopentyl-2-({4-[4-(dimethylamino)piperidin-1-yl]-2-ethoxyphenyl}amino)-7-methyl-7,9-dihydro-8H-purin-8-one], the IC50 was 703 nM in experiment [1] and 75.6 nM in experiment [2].

In the case of `CN1CCC(NC(=O)c2ccc(Nc3ncc4c(n3)n(C3CCCC3)c(=O)n4C)cc2F)CC1` [Example 8, 4-[(9-Cyclopentyl-7-methyl-8-oxo-8,9-dihydro-7H-purin-2-yl)-amino]-2-fluoro-N-(1-methylpiperidin-4-yl)benzamide], the IC50 in experiment [1] is 3910 nM; in experiment [2], 633 nM.

Regarding `CNC(=O)c1ccc(Nc2ncc3c(n2)n(C2CCCC2)c(=O)n3C)c(OC)c1` [Example 9, 4-[(9-Cyclopentyl-7-methyl-8-oxo-8,9-dihydro-7H-purin-2-yl)amino]-3-methoxy-N-methylbenzamide], the IC50 was found to be 328 nM in experiment [1] and 32.2 nM in experiment [2].

Regarding `Cc1cc(S(N)(=O)=O)ccc1Nc1ncc2c(n1)n(C1CCCC1)c(=O)n2C` [Example 2, 4-[(9-Cyclopentyl-7-methyl-8-oxo-8,9-dihydro-7H-purin-2-yl)-amino]-3-methylbenzenesulfonamide], the IC50 in experiment [1] was found to be 1280 nM; in experiment [2] it was 16.6 nM.

`CCOc1cc(OC2CCN(C)CC2)ccc1Nc1ncc2c(n1)n(C1CCCC1)c(=O)n2C` [Example 26, 9-Cyclopentyl-2-({2-ethoxy-4-[(1-methylpiperidin-4-yl)-oxy]-phenyl}amino)-7-methyl-7,9-dihydro-8H-purin-8-one]: the values for the IC50 in experiment [1] and in experiment [2] were 50.9 nM and 26 nM, respectively.

Turning to `COc1cc(N2CCCN(C)CC2)ccc1Nc1ncc2c(n1)n(C1CCCC1)c(=O)n2C` [Example 20, 9-Cyclopentyl-2-{[2-methoxy-4-(4-methyl-1,4-diazepan-1-yl)-phenyl]amino}-7-methyl-7,9-dihydro-8H-purin-8-one], the IC50 in experiment [1] was found to be 249 nM; in experiment [2], 39.5 nM.

Consider `CCN1CCC(NC(=O)c2cc(F)c(Nc3ncc4c(n3)n(C3CCCC3)c(=O)n4C)cc2F)CC1` [Example 17, 4-[(9-Cyclopentyl-7-methyl-8-oxo-8,9-dihydro-7H-purin-2-yl)-amino]-N-(1-ethylpiperidin-4-yl)-2,5-difluorobenzamide], for which the values for the IC50 in experiment [1] and in experiment [2] were 9240 nM and 2010 nM, respectively.

As for `CCn1c(=O)n(C2CCCC2)c2nc(Nc3ccc(S(N)(=O)=O)cc3)ncc21` [Example 34, 4-[(9-Cyclopentyl-7-ethyl-8-oxo-8,9-dihydro-7H-purin-2-yl)-amino]benzenesulfonamide], the figures for the IC50 in experiment [1] and in experiment [2] were 1040 nM and 96.3 nM, respectively.

On to `COc1cc(NC2CCN(C)CC2)ccc1Nc1ncc2c(n1)n(C1CCCC1)c(=O)n2C` [Example 22, 9-Cyclopentyl-2-({2-methoxy-4-[(1-methylpiperidin-4-yl)-amino]-phenyl}amino)-7-methyl-7,9-dihydro-8H-purin-8-one], for which the results for the IC50 in experiment [1] and in experiment [2] were 317 nM and 118 nM, respectively.

With `CCn1c(=O)n(C2CCCC2)c2nc(Nc3ccc(C(=O)NC)cc3OC)ncc21` [Example 31, 4-[(9-Cyclopentyl-7-ethyl-8-oxo-8,9-dihydro-7H-purin-2-yl)-amino]-3-methoxy-N-methylbenzamide], the IC50 in experiment [1] is 371 nM; in experiment [2], 16.4 nM.

In the case of `Cn1c(=O)n(C2CCCC2)c2nc(Nc3ccc(S(N)(=O)=O)cc3)ncc21` [Example 11, 4-[(9-Cyclopentyl-7-methyl-8-oxo-8,9-dihydro-7H-purin-2-yl)-amino]benzenesulfonamide], the IC50 in experiment [1] amounted to 9650 nM; in experiment [2] it was 167 nM.

With `COc1cc(CCN2CCN(C)CC2)ccc1Nc1ncc2c(n1)n(C1CCCC1)c(=O)n2C` [Example 27, 9-Cyclopentyl-2-({2-methoxy-4-[2-(4-methylpiperazin-1-yl)-ethyl]phenyl}amino)-7-methyl-7,9-dihydro-8H-purin-8-one], the IC50 in experiment [1] was 288 nM; in experiment [2] it was 24.1 nM.

As to `CN1C2CCCC1CC(NC(=O)c1ccc(Nc3ncc4c(n3)n(C3CCCC3)c(=O)n4C)c(F)c1)C2` (stereo not shown) [Example 16, 4-[(9-Cyclopentyl-7-methyl-8-oxo-8,9-dihydro-7H-purin-2-yl)-amino]-3-fluoro-N-(9-methyl-9-azabicyclo[3.3.1]non-3-yl)-benzamide], the IC50 in experiment [1] was 1680 nM; in experiment [2], 313 nM.

In the case of `CCOc1cc(OCCN(C)C)ccc1Nc1ncc2c(n1)n(C1CCCC1)c(=O)n2C` [Example 25, 9-Cyclopentyl-2-({4-[2-(dimethylamino)ethoxy]-2-ethoxy-phenyl}-amino)-7-methyl-7,9-dihydro-8H-purin-8-one], the IC50 stood at 149 nM in experiment [1] and 28.9 nM in experiment [2].

Regarding `COc1cc(C(=O)NC2CCN(C)CC2)ccc1Nc1ncc2c(n1)n(C1CCCC1)c(=O)n2C` [Example 1], the IC50 amounted to 622 nM in experiment [1] and 64.6 nM in experiment [2].

In the case of `COc1cc(N2CCN(C)CC2)ccc1Nc1ncc2c(n1)n(C1CCCC1)c(=O)n2C` [Example 4, 9-Cyclopentyl-2-{[2-methoxy-4-(4-methylpiperazin-1-yl)-phenyl]amino}-7-methyl-7,9-dihydro-8H-purin-8-one], the IC50 in experiment [1] was 213 nM; in experiment [2], 22.9 nM.

Consider `CN1CCN(c2ccc(Nc3ncc4c(n3)n(C3CCCC3)c(=O)n4C)c(Cl)c2)CC1` [Example 18, 2-{[2-Chloro-4-(4-methylpiperazin-1-yl)phenyl]amino}-9-cyclopentyl-7-methyl-7,9-dihydro-8H-purin-8-one], for which the IC50 in experiment [1] turned out to be 249 nM; in experiment [2], 14.8 nM.

For `COc1cc(N2CCN(C)CC2)ccc1Nc1ncc2c(n1)n(C1CCCC1)c(=O)n2CC#N` [Example 36, (9-Cyclopentyl-2-{[2-methoxy-4-(4-methylpiperazin-1-yl)-phenyl]-amino}-8-oxo-8,9-dihydro-7H-purin-7-yl)acetonitrile], the results for the IC50 in experiment [1] and in experiment [2] were 217 nM and 21.6 nM, respectively.

Turning to `COc1cc(C(=O)N2CCCC2)ccc1Nc1ncc2c(n1)n(C1CCCC1)c(=O)n2C` [Example 10, 9-Cyclopentyl-2-{[2-methoxy-4-(pyrrolidin-1-ylcarbonyl)-phenyl]amino}-7-methyl-7,9-dihydro-8H-purin-8-one], the IC50 in experiment [1] was 1050 nM; in experiment [2], 19.4 nM.

In the case of `COc1cc(NS(C)(=O)=O)ccc1Nc1ncc2c(n1)n(C1CCCC1)c(=O)n2C` [Example 7, N-{4-[(9-Cyclopentyl-7-methyl-8-oxo-8,9-dihydro-7H-purin-2-yl)-amino]-3-methoxyphenyl}methanesulfonamide], the values for the IC50 in experiment [1] and in experiment [2] were 714 nM and 30.7 nM, respectively.
